Reference: ChEMBL document CHEMBL4342414, “Activity of 2,6,9-trisubstituted purines as potent PDGFRα kinase inhibitors with antileukaemic activity” (Eur J Med Chem, 2019)

System: EOL1
Test: Cytotoxicity against FIP1L1-PDGFRA positive human EOL-1 cells assessed as growth inhibition after 72 hrs by resazurin dye-based fluorescence analysis
Type: functional
Conditions: EOL1, 72 h

Row | SMILES | GI50 [µM]
1 | N[C@H]1CC[C@H](Nc2nc(Nc3cccc(CN4CCOCC4)c3)c3ncn(C4CCCC4)c3n2)CC1 | 0.012
2 | NCCCCNc1nc(Nc2cccc(CN3CCOCC3)c2)c2ncn(C3CCCC3)c2n1 | 0.061
3 | NCCCCNc1nc(Nc2ccccc2CN2CCOCC2)c2ncn(C3CCCC3)c2n1 | 6.41
4 | N[C@H]1CC[C@H](Nc2nc(Nc3ccc(CN4CCOCC4)cc3)c3ncn(CCCO)c3n2)CC1 | 0.164
5 | CC(C)(C)c1cc(NC(=O)Nc2ccc(-c3cn4c(n3)sc3cc(OCCN5CCOCC5)ccc34)cc2)no1 [QUIZARTINIB] | < 0.0005
6 | N[C@H]1CC[C@H](Nc2nc(Nc3ccc(-n4cnnc4)cc3)c3ncn(C4CCCC4)c3n2)CC1 | 0.005
7 | N[C@H]1CC[C@H](Nc2nc(Nc3ccc(-n4cccn4)cc3)c3ncn(C4CCCC4)c3n2)CC1 | 0.008
8 | OCCCCNc1nc(Nc2ccc(CN3CCOCC3)cc2)c2ncn(C3CCC(O)C3)c2n1 (centres undefined) | 0.162
9 | OCCCCNc1nc(Nc2ccc(N3CCN(Cc4ccccc4)CC3)cc2)c2ncn(CCCO)c2n1 | 1.01
10 | NCCCCNc1nc(Nc2ccc(N3CCN(Cc4ccccc4)CC3)cc2)c2ncn(CCCO)c2n1 | 0.158

Molecular target: Platelet-derived growth factor receptor alpha (Homo sapiens, UniProt P16234, V561D)
Sequence (P16234 24-1089 V561D limits assumed): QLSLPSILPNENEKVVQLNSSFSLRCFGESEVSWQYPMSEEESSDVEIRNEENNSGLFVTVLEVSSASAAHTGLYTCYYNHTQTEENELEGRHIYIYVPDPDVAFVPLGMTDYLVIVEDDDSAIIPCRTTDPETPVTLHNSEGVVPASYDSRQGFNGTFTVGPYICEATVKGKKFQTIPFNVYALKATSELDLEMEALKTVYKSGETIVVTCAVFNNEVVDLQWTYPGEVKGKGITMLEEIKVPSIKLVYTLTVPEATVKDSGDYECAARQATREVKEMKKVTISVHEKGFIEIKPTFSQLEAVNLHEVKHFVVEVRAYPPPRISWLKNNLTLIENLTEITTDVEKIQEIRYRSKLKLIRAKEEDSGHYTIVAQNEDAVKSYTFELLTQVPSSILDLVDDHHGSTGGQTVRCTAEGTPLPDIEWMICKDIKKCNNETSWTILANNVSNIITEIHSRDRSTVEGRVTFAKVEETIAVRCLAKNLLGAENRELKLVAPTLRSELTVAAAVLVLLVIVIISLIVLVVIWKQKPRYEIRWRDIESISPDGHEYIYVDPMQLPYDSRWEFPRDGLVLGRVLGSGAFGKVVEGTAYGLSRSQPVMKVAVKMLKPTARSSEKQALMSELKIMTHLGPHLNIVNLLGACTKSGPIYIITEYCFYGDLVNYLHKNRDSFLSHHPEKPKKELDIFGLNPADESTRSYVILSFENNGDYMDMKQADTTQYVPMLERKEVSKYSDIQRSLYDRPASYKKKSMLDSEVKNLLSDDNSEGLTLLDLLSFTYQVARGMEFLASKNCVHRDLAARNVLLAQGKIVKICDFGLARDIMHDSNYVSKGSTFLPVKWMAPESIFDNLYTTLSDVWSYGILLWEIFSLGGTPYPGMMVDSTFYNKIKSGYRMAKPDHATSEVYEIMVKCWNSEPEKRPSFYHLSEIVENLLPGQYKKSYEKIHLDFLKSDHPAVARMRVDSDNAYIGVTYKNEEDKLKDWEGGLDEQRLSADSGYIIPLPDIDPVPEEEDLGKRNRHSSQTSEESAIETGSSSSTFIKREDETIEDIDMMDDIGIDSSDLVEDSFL
Test: biochemical
Type: cell-based, Sf9
Conditions: not given

Row | SMILES | IC50 [µM]
11 | NCCCCNc1nc(Nc2ccccc2CN2CCOCC2)c2ncn(C3CCCC3)c2n1 | > 20

System: not listed separately
Test: Selectivity index, ratio of GI50 for human BJ cells to GI50 for FIP1L1-PDGFRA positive human EOL-1 cells after 72 hrs by resazurin dye-based fluorescence analysis
Conditions: not given

Row | SMILES | RatioGI50
12 | NCCCCNc1nc(Nc2ccccc2CN2CCOCC2)c2ncn(C3CCCC3)c2n1 | 6

System: not listed separately
Test: Chemical stability of compound
Type: physicochemical
Conditions: not given

Row | Stability | SMILES
13 | Unstable | N[C@H]1CC[C@H](Nc2nc(Nc3ccc(-n4cnnc4)cc3)c3ncn(C4CCCC4)c3n2)CC1
14 | Unstable | N[C@H]1CC[C@H](Nc2nc(Nc3ccc(-n4cccn4)cc3)c3ncn(C4CCCC4)c3n2)CC1

System: K562
Test: Cytotoxicity against human K562 cells assessed as growth inhibition after 72 hrs by resazurin dye-based fluorescence analysis
Type: functional
Conditions: K562, 72 h

Row | SMILES | GI50 [µM]
15 | N[C@H]1CC[C@H](Nc2nc(Nc3cccc(CN4CCOCC4)c3)c3ncn(C4CCCC4)c3n2)CC1 | 1.28
16 | NCCCCNc1nc(Nc2cccc(CN3CCOCC3)c2)c2ncn(C3CCCC3)c2n1 | 8.4
17 | NCCCCNc1nc(Nc2ccccc2CN2CCOCC2)c2ncn(C3CCCC3)c2n1 | 12.2
18 | N[C@H]1CC[C@H](Nc2nc(Nc3ccc(CN4CCOCC4)cc3)c3ncn(CCCO)c3n2)CC1 | 9.93
19 | CC(C)(C)c1cc(NC(=O)Nc2ccc(-c3cn4c(n3)sc3cc(OCCN5CCOCC5)ccc34)cc2)no1 [QUIZARTINIB] | > 40
20 | N[C@H]1CC[C@H](Nc2nc(Nc3ccc(-n4cnnc4)cc3)c3ncn(C4CCCC4)c3n2)CC1 | 1.12
21 | N[C@H]1CC[C@H](Nc2nc(Nc3ccc(-n4cccn4)cc3)c3ncn(C4CCCC4)c3n2)CC1 | 0.982
22 | OCCCCNc1nc(Nc2ccc(CN3CCOCC3)cc2)c2ncn(C3CCC(O)C3)c2n1 (centres undefined) | 3.78
23 | OCCCCNc1nc(Nc2ccc(N3CCN(Cc4ccccc4)CC3)cc2)c2ncn(CCCO)c2n1 | 8.67
24 | NCCCCNc1nc(Nc2ccc(N3CCN(Cc4ccccc4)CC3)cc2)c2ncn(CCCO)c2n1 | 2.57

System: HCC827
Test: Cytotoxicity against human HCC827 cells assessed as growth inhibition after 72 hrs by resazurin dye-based fluorescence analysis
Type: functional
Conditions: HCC827, 72 h

Row | SMILES | GI50 [µM]
25 | N[C@H]1CC[C@H](Nc2nc(Nc3cccc(CN4CCOCC4)c3)c3ncn(C4CCCC4)c3n2)CC1 | 1.19
26 | NCCCCNc1nc(Nc2cccc(CN3CCOCC3)c2)c2ncn(C3CCCC3)c2n1 | 5.37
27 | NCCCCNc1nc(Nc2ccccc2CN2CCOCC2)c2ncn(C3CCCC3)c2n1 | 26.3
28 | N[C@H]1CC[C@H](Nc2nc(Nc3ccc(CN4CCOCC4)cc3)c3ncn(CCCO)c3n2)CC1 | 18.4
29 | CC(C)(C)c1cc(NC(=O)Nc2ccc(-c3cn4c(n3)sc3cc(OCCN5CCOCC5)ccc34)cc2)no1 [QUIZARTINIB] | > 40
30 | N[C@H]1CC[C@H](Nc2nc(Nc3ccc(-n4cnnc4)cc3)c3ncn(C4CCCC4)c3n2)CC1 | 0.865
31 | N[C@H]1CC[C@H](Nc2nc(Nc3ccc(-n4cccn4)cc3)c3ncn(C4CCCC4)c3n2)CC1 | 0.847
32 | OCCCCNc1nc(Nc2ccc(CN3CCOCC3)cc2)c2ncn(C3CCC(O)C3)c2n1 (centres undefined) | 3.26
33 | OCCCCNc1nc(Nc2ccc(N3CCN(Cc4ccccc4)CC3)cc2)c2ncn(CCCO)c2n1 | 9.8
34 | NCCCCNc1nc(Nc2ccc(N3CCN(Cc4ccccc4)CC3)cc2)c2ncn(CCCO)c2n1 | 6.7

System: not listed separately
Test: Cytotoxicity against human BJ cells assessed as growth inhibition after 72 hrs by resazurin dye-based fluorescence analysis
Type: cell-based
Conditions: not given

Row | SMILES | GI50 at 72 h [µM]
35 | N[C@H]1CC[C@H](Nc2nc(Nc3cccc(CN4CCOCC4)c3)c3ncn(C4CCCC4)c3n2)CC1 | 14.7
36 | NCCCCNc1nc(Nc2cccc(CN3CCOCC3)c2)c2ncn(C3CCCC3)c2n1 | 22
37 | NCCCCNc1nc(Nc2ccccc2CN2CCOCC2)c2ncn(C3CCCC3)c2n1 | 37.5
38 | N[C@H]1CC[C@H](Nc2nc(Nc3ccc(CN4CCOCC4)cc3)c3ncn(CCCO)c3n2)CC1 | > 40
39 | CC(C)(C)c1cc(NC(=O)Nc2ccc(-c3cn4c(n3)sc3cc(OCCN5CCOCC5)ccc34)cc2)no1 [QUIZARTINIB] | > 40
40 | N[C@H]1CC[C@H](Nc2nc(Nc3ccc(-n4cnnc4)cc3)c3ncn(C4CCCC4)c3n2)CC1 | 12.8
41 | N[C@H]1CC[C@H](Nc2nc(Nc3ccc(-n4cccn4)cc3)c3ncn(C4CCCC4)c3n2)CC1 | 10.4
42 | OCCCCNc1nc(Nc2ccc(CN3CCOCC3)cc2)c2ncn(C3CCC(O)C3)c2n1 (centres undefined) | 26.1
43 | OCCCCNc1nc(Nc2ccc(N3CCN(Cc4ccccc4)CC3)cc2)c2ncn(CCCO)c2n1 | > 40
44 | NCCCCNc1nc(Nc2ccc(N3CCN(Cc4ccccc4)CC3)cc2)c2ncn(CCCO)c2n1 | 28.5

System: not listed separately
Test: Cytotoxicity against human CEM cells assessed as growth inhibition after 72 hrs by resazurin dye-based fluorescence analysis
Type: cell-based
Conditions: CEM (CCRF-CEM) cells

Row | SMILES | GI50 at 72 h [µM]
45 | N[C@H]1CC[C@H](Nc2nc(Nc3cccc(CN4CCOCC4)c3)c3ncn(C4CCCC4)c3n2)CC1 | 1.36
46 | NCCCCNc1nc(Nc2cccc(CN3CCOCC3)c2)c2ncn(C3CCCC3)c2n1 | 8.19
47 | NCCCCNc1nc(Nc2ccccc2CN2CCOCC2)c2ncn(C3CCCC3)c2n1 | 25.7
48 | N[C@H]1CC[C@H](Nc2nc(Nc3ccc(CN4CCOCC4)cc3)c3ncn(CCCO)c3n2)CC1 | 34.5
49 | CC(C)(C)c1cc(NC(=O)Nc2ccc(-c3cn4c(n3)sc3cc(OCCN5CCOCC5)ccc34)cc2)no1 [QUIZARTINIB] | > 40
50 | N[C@H]1CC[C@H](Nc2nc(Nc3ccc(-n4cnnc4)cc3)c3ncn(C4CCCC4)c3n2)CC1 | 0.671
51 | N[C@H]1CC[C@H](Nc2nc(Nc3ccc(-n4cccn4)cc3)c3ncn(C4CCCC4)c3n2)CC1 | 0.933
52 | OCCCCNc1nc(Nc2ccc(CN3CCOCC3)cc2)c2ncn(C3CCC(O)C3)c2n1 (centres undefined) | 6.43
53 | OCCCCNc1nc(Nc2ccc(N3CCN(Cc4ccccc4)CC3)cc2)c2ncn(CCCO)c2n1 | 27.9
54 | NCCCCNc1nc(Nc2ccc(N3CCN(Cc4ccccc4)CC3)cc2)c2ncn(CCCO)c2n1 | 7.57
